ChEMBL document CHEMBL1149454, “Synthesis and in vitro antitubercular activity of some 1-[(4-sub)phenyl]-3-(4-{1-[(pyridine-4-carbonyl)hydrazono]ethyl}phenyl)thiourea” (Bioorg Med Chem Lett, 2006)
≈ marks a conversion by molar mass, not a printed value.

System: Mycobacterium tuberculosis
Test: Antibacterial activity against INH-resistant Mycobacterium tuberculosis
Format: functional

SMILES	MIC
COc1ccc(N/C(S)=N\c2ccc(/C(C)=N\NC(=O)c3ccncc3)cc2)cc1	1.85 µM (≈ 0.776 µg/mL)
C/C(=N/NC(=O)c1ccncc1)c1ccc(N/C(S)=N/c2ccc(Br)cc2)cc1	1.66 µM (≈ 0.778 µg/mL)
C/C(=N/NC(=O)c1ccncc1)c1ccc(N/C(S)=N/c2ccccc2)cc1	4 µM (≈ 1.56 µg/mL)
CCOc1ccc(N/C(S)=N\c2ccc(/C(C)=N\NC(=O)c3ccncc3)cc2)cc1	1.79 µM (≈ 0.776 µg/mL)
C/C(=N/NC(=O)c1ccncc1)c1ccc(N/C(S)=N/c2ccc(F)cc2)cc1	0.49 µM (≈ 0.2 µg/mL)
NNC(=O)c1ccncc1 [ISONIAZID]	90.9 µM (≈ 12.5 µg/mL)
C/C(=N/NC(=O)c1ccncc1)c1ccc(N/C(S)=N/c2ccc(C)cc2)cc1	3.86 µM (≈ 1.56 µg/mL)
